# Values quoted from earlier work as cited in patent US20080241290A1, “Sinus relief composition and method of producing the same” (priority 2007, published 2008).
# Conditions: pure capsaicinoid, Scoville scale
smiles,measurement,value
COc1cc(CNC(=O)CCCC/C=C/C(C)C)ccc1O [capsaicin],pungency (Scoville heat units),"15,000,000-16,000,000 Scoville units"
